Measurements: patent US20140039803A1, “Method for Rapid Identification of Drug Targets and Drug Mechanisms of Action in Human Cells” (THE ROCKEFELLER UNIVERSITY, priority 2011, published 2014)
Values joined by “and” are separate entries in the source; they are usually repeats but may differ in a detail not shown here. Equal values may be shown once. Read-outs that look alike come from different tables or passages of the source.

Legend:
[1] = system: HCT-116 cells (parental); assay: Cell proliferation assay (WST1), LD50; format: cell-based, human
[2] = target: PLK3 (Homo sapiens, UniProt Q9H4B4); conditions: cited from earlier work
Sequence of PLK3 (Q9H4B4 whole entry): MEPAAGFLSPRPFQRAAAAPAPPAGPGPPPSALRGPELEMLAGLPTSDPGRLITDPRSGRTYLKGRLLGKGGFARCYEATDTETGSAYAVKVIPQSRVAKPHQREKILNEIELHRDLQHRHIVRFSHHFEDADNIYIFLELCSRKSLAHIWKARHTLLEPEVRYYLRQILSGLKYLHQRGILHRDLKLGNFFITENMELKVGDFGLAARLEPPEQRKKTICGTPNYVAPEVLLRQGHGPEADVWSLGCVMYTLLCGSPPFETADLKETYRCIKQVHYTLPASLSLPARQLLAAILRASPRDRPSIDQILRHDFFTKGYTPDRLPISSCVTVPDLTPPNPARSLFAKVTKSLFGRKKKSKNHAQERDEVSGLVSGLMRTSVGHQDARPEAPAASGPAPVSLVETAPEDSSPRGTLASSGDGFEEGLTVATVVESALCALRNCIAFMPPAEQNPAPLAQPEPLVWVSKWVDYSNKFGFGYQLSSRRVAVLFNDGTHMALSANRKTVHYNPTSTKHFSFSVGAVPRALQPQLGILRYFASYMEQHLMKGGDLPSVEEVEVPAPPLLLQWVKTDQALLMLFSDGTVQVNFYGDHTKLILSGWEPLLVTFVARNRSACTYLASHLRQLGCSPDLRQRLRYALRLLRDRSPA

[3] = system: BI-2536-resistant clones of HCT-116 cells; assay: Cell proliferation assay (WST1), LD50; format: cell-based, human
[4] = system: HCT-116 cells; assay: Spindle phenotype with BI-2536 treatment; format: cell-based, human
[5] = system: BI-2536-resistant clones of HCT-116 cells; assay: Spindle phenotype with BI-2536 treatment; format: cell-based, human
[6] = target: PLK2 (Homo sapiens, UniProt Q9NYY3); conditions: cited from earlier work
Sequence of PLK2 (Q9NYY3 whole entry, species assumed): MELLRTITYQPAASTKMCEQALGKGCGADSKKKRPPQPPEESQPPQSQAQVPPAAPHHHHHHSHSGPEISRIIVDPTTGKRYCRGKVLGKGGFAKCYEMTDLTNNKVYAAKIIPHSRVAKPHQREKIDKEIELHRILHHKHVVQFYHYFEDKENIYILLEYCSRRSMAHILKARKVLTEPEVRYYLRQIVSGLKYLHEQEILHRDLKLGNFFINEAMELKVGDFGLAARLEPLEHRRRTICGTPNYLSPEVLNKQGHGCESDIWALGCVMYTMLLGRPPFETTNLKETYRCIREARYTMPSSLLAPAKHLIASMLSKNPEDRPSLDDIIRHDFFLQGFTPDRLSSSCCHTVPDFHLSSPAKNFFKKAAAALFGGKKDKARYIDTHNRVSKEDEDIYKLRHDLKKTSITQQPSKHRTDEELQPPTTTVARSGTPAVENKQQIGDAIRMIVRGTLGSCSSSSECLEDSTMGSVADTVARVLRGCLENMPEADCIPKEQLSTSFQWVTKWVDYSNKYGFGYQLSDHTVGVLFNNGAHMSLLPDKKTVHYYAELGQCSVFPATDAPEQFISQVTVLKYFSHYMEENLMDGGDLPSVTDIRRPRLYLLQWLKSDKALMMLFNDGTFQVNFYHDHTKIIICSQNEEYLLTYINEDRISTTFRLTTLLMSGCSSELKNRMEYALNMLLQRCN

[7] = system: related motor proteins; conditions: in vitro; cited from earlier work
[8] = system: hTERT-RPE1 cells stably expressing GFP-PSMB5 wild type or mutants; assay: Proliferation assay, bortezomib treatment; format: cell-based, human; conditions: stable expression of GFP-tagged PSMB5 mutants
[9] = system: bortezomib-resistant clones of HCT-116 cells; conditions: for LD50: Table 4, mean ± s.e.m., n = 3

For CC[C@@H]1C(=O)N(C)c2cnc(Nc3ccc(C(=O)NC4CCN(C)CC4)cc3OC)nc2N1C1CCCC1 [BI-2536], the LD50 ([1]; Example 1, Table 1, parental HCT-116, mean ± s.d.) is given as 3.9 nM and 3.9 ± 1.0 nM, the LD50 ([1]; Example 2, Table 3, parental HCT-116, n = 3, mean ± s.d.) is given as 3.9 nM and 3.9 ± 2.8 nM and the activity in vitro [2] is given as “active”. For the same compound, the LD50 ([3]; Example 1, Table 1, clone A, mean ± s.d.) was 24.7 ± 5.9 nM, the LD50 ([3]; Example 1, Table 1, clone B, mean ± s.d.) was 22.9 ± 5.3 nM and the LD50 ([3]; Example 1, Table 1, clone C, mean ± s.d.) was 12.6 ± 2.6 nM. The LD50 ([3]; Example 1, Table 1, clone D, mean ± s.d.) was 27.6 ± 2.4 nM, the LD50 ([3]; Example 1, Table 1, clone E, mean ± s.d.) was 35.9 ± 9.9 nM and the LD50 ([3]; Example 1, Table 1, clone F, mean ± s.d.) was 33.4 ± 7.5 nM. For the same compound, the LD50 ([3]; Example 2, Table 3, clone A, n = 3, mean ± s.d.) was 34.9 ± 13.0 nM, the LD50 ([3]; Example 2, Table 3, clone B, n = 3, mean ± s.d.) was 33.5 ± 2.6 nM and the LD50 ([3]; Example 2, Table 3, clone C, n = 3, mean ± s.d.) was 27.2 ± 8.6 nM. For the same compound, the LD50 ([3]; Example 2, Table 3, clone D, n = 3, mean ± s.d.) was 14.2 ± 7.8 nM, the LD50 ([3]; Example 2, Table 3, clone E, n = 3, mean ± s.d.) was 21.1 ± 5.7 nM and the LD50 ([3]; Example 2, Table 3, clone F, n = 3, mean ± s.d.) was 27.5 ± 13.3 nM. The normal bipolar spindles [4] was 11±3%, the bipolar spindles ([5]; BI-2536 treatment, drug-resistant clone B) was 46±4% and the “reduction in bipolar spindles associated with BI-2536 treatment” value ([5]; Example 1: clones A, B and C) was “suppressed”. The activity in vitro [6] was “active”.

In the case of c1ccc(C2(c3nc(-c4ccncc4)cs3)CC2)cc1 [PCTP, 4-(2-(1-phenylcyclopropyl)thiazol-4-yl)pyridine], the “selectivity over related motor proteins” value [7] is given as “inhibit other related motor proteins”.

In the case of N[C@@H](CSC(c1ccccc1)(c1ccccc1)c1ccccc1)C(=O)O [STLC, S-trityl-L-cysteine], the “selectivity over related motor proteins” value [7] is given as “selective”.

For CC(C)C[C@H](NC(=O)[C@H](Cc1ccccc1)NC(=O)c1cnccn1)B(O)O [bortezomib], the LD50 ([1]; Example 3, Table 4, parental HCT-116, mean ± s.e.m., n = 3) was 6.3 ± 0.9 nM, the LD50 ([1]; HCT-116 cells, text of Example 3) was 6.3±0.9 nm and the “effect of expression of PSMB5 M104V or A108T on bortezomib sensitivity” value [8] was “suppressed bortezomib sensitivity”. The LD50 ([9]; clone A) was 19.4 ± 6.7 nM, the LD50 ([9]; clone B) was 15.3 ± 6.2 nM and the LD50 ([9]; clone C) was 17.8 ± 6.0 nM. The LD50 ([9]; clone D) was 17.2 ± 5.4 nM, the LD50 ([9]; clone E) was 41.5 ± 9.5 nM and the “LD50 of resistant clones relative to parental cell line” value ([9]; five clones with reduced bortezomib sensitivity, fold higher) was 2.4-6.5 fold.

For CC(=O)O[C@H]1C(=O)[C@@]2(C)[C@H]([C@H](OC(=O)c3ccccc3)[C@]3(O)C[C@H](OC(=O)[C@H](O)[C@@H](NC(=O)c4ccccc4)c4ccccc4)C(C)=C1C3(C)C)[C@]1(OC(C)=O)CO[C@@H]1C[C@@H]2O [taxol], the “sensitivity of clones compared with parental cell line” value ([3]; Example 1: clones A, B and C) was “less sensitive than the parental cell line” and the “sensitivity of clones compared with parental cell line” value ([3]; Example 2: clones D, E and F, 20 nM (FIG. 11)) was “less sensitive than the parental cell line”.
